Source: patent US8071325B2, “Flow cytometric method and kit for metal-induced sensitivity” (The Trustees of the University of Pennsylvania, priority 2004, dated 2011)
Marks after values point to notes of the source that are not given here.

Assays:
[1] = system: CFSE-labeled peripheral blood lymphocytes (CD3+, CD3+/CD4+, CD3+/CD8+ T cells); assay: CFSE dye dilution proliferation measured by flow cytometry; assay type: cell-based, human; conditions: for proliferative ratio (PR, %M2/%M1): mean +/- SEM
Description: Cell surface marker staining was performed. The following monoclonal antibodies were used: Phycoerythin (PE) conjugated anti-human CD4, Tricolor-conjugated anti-human CD3, Allophycocyanin (APC) conjugated anti-human CD8 (Caltag, Burlingame, Calif.). The vital dye TO-PRO®-3 (Molecular Probes Inc., Eugene, Oreg.) was used to discriminate live and dead cells.
The CFSE labeling method was adapted from a previously described protocol. Aliquots of the same PBL sample used in the BeLPT assay were split and washed three times in 10 ml of phosphate buffered saline (dPBS, Gibco BRL, Grand Island, N.Y.) at room temperature. The cells were adjusted to 10^6 cells per milliliter, and CFSE (Molecular Probes, Eugene, Oreg.) was added at a final concentration of 1 μM/ml. The cells were vortexed for ten seconds and then incubated for ten minutes in the dark at room temperature with gentle shaking. After incubation an equal volume of sterile, heat inactivated human serum (Gibco BRL, Grand Island, N.Y.) was added to the sample for one minute to quench the reaction. The cells were washed twice, adjusted to the concentration 2×10^6/ml in 10% human heat inactivated serum.
Following CFSE (carboxy fluorescein diacetate succinimide ester) labeling, the cells were cultured in 24-well plates at 2×10^6 per well in the presence of either media alone, PHA, Candida, or either 10 or 100 μM of beryllium sulfate. The cells were incubated for seven days at 37° C. and 5% CO2. Preliminary experiments titrated the optimal dose of CFSE and time of incubation. Surface labeling was performed at the time of harvest using CD3TC, CD4PE and CD8APC in some experiments. TO-PRO®-3 was added to define live cells in some experiments.
All data were acquired on a four-color, dual laser FACSCalibur (Becton Dickinson, San Jose, Calif.). CFSE was measured in Fl-1 channel (530/30-nm bandpass filter), CD4PE in the Fl-2 channel (585/42-nm bandpass filter), CD3TC in the Fl-3-channel (670-nm longpass filter) using excitation from the 488 nm blue laser and TO-PRO®-3 or CD8APC in Fl-4 channel (661/16 bandpass filter) by excitation using the 635 nm red diode laser. Compensation for CFSE in multiparameter flow cytometry is dose dependent and determined empirically.
The basic analysis gating strategy was as follows (FIG. 1): for analysis of CD3+ T cells alone, an initial region was defined as lymphocytes by light scatter and a broad region was set to include medium to high forward/low side scatter events after stimulation with PHA (FIG. 1A, R1) to include all proliferating lymphocytes. For CD3+ T cells, the R1 data were plotted in a contour plot of CD3TC versus TO-PRO®-3 to identify the live CD3+ T Cells (FIG. 1B, R2). The R2 population was expressed on a contour plot of CD3+CD4+ where a double positive region was defined as R3 (FIG. 1C). For final analyses, each population was then analyzed for CFSE (FL1) fluorescence, representing proliferation, on a single parameter histogram using a logical gate of either R1*R2 for CD3+ cells only and R1*R2*R3 for CD3+4+ cells. In experiments where only data from CD3+ or CD3+4+ cells were collected, a live gate on TO-PRO®-3 negative (“viable”) cells was also used in acquisition. When specific CD4+ and CD8+ T cell determination was performed, the viability dye was eliminated. The strategy was similar to that above with light scatter gating (R1) followed by identification of the CD3+ events using a SSC vs CD3+ plot (R2) and CD4+ (R3) and CD8+(R4) identification followed by single parameter histogram analysis of the CFSE fluorescence (for CD4+, R1*R2*R3; for CD8, R1*R2*R4*).
CFSE flow cytometric data files were analyzed using CellQuest™ acquisition/analysis software (Becton Dickinson, San Jose, Calif.). Fifty thousand (50,000) events were collected. The data are reported as the proliferative ratio (PR) defined as the ratio of the percentage of divided cells to undivided cells on day 7 (%M2/%M1). […]

[2] = system: Peripheral blood lymphocytes (PBLs); assay: Blood BeLPT (3H-thymidine incorporation assay); assay type: cell-based, human; conditions: for stimulation index (SI): mean ± SEM
Description: Beryllium workers (present and former), referred to the Hospital of the University of Pennsylvania (HUP) for possible CBD, were tested. […] CBD was diagnosed when there was evidence of BH with granulomas on biopsy and/or radiologic changes consistent with a granulomatous process. Normal unexposed volunteers were used as controls.
Peripheral blood lymphocytes (PBLs) were isolated from heparinized blood under sterile conditions using density centrifugation with lymphocyte separation medium (ICN Biomedicals Inc., Aurora, Ohio). Blood BeLPT was performed. The cells were cultured at a concentration of 2.5×10^5 cells/well. Stimulants included 500 μg/ml of phytohemagglutinin (PHA) (L-9132; Sigma Chemical Co., St Louis, Mo.), 20 μl/ml of Candida(M15; Greer Labs, Lenoir, N.C.) and 100 μM or 10 μM of beryllium sulfate (Blush Wellman, Cleveland, OH). After culturing the cells in an incubator (5% CO2 and 37° C.) for 3, 5 or 7 days, the cells were pulsed with ^3H thymidine (DuPont NEN, Boston, Mass.) overnight (ice. 16-24 hours) and then harvested on a filter fiber (Wallac, Turku, Finland). The uptake of ^3H thymidine was measured as counts per minute (CPM) using a Wallac 1205 beta plate liquid scintillation system (Wallac Inc., Gaithersburg, Md.). Results were expressed as a stimulation index (SI=mean CPM of test wells/mean CPM of control wells). A positive response was defined as a SI>3.0 for blood A positive test required that a positive response be recorded on two different days or at two different concentrations of beryllium.
All values are presented as ± SEM (standard error of the mean). Data are only presented if a minimum of 1,000 cells were detected within a population. For the tritiated thymidine test, the results were expressed as a stimulation index and group differences (between controls and beryllium-sensitive populations) were evaluated using the Student's T test. For the CFSE tests, since the results were expressed as PR, the Mann-Whitney version of the […] was used to determine if there was a difference between the normal donors and the beryllium exposed patients. Statistical significance was defined as p<0.05.

## O=S(=O)([O-])[O-].[Be+2] [Be, beryllium sulfate]
[1]; CD3+ and CD3+/CD4+ T cells from beryllium-sensitized subjects, both doses
  CFSE-determined response, sensitized versus controls (in words): significant difference
[1]; CD3+ or CD3+/CD4+ high cells from controls, 10 or 100 μM
  CFSE-determined response (in words): minimal response
[1]; CD3+/CD4+, Be 10 μM, day 7, beryllium-exposed sensitized (n = 24)
  proliferative ratio (PR, %M2/%M1): 0.105 ± 0.038
[1]; CD3+/CD4+, Be 10 μM, day 7, normal controls (n = 9)
  proliferative ratio (PR, %M2/%M1): 0.027 ± 0.005
[1]; CD3+/CD4+, Be 100 μM, day 7, beryllium-exposed sensitized (n = 24)
  proliferative ratio (PR, %M2/%M1): 0.089 ± 0.027
[1]; CD3+/CD4+, Be 100 μM, day 7, normal controls (n = 9)
  proliferative ratio (PR, %M2/%M1): 0.029 ± 0.010
[1]; CD3+, Be 10 μM, day 7, beryllium-exposed sensitized (n = 24)
  proliferative ratio (PR, %M2/%M1): 0.115 ± 0.046
[1]; CD3+, Be 10 μM, day 7, normal controls (n = 9)
  proliferative ratio (PR, %M2/%M1): 0.027 ± 0.005
[1]; CD3+, Be 100 μM, day 7, beryllium-exposed sensitized (n = 24)
  proliferative ratio (PR, %M2/%M1): 0.099 ± 0.026
[1]; CD3+, Be 100 μM, day 7, normal controls (n = 9)
  proliferative ratio (PR, %M2/%M1): 0.030 ± 0.008
[1]; CD8+ T cells, normal donors or beryllium-sensitized individuals
  CFSE-determined response, sensitized versus normal donors (in words): no differences were noted
[1]; Table 3 series (CD8 APC staining), CD3+, Be 10 μM, beryllium-exposed sensitized (n = 14)
  proliferative ratio (PR, %M2/%M1): 0.156 +/− 0.114‡
[1]; Table 3 series (CD8 APC staining), CD3+, Be 10 μM, normal controls (n = 6)
  proliferative ratio (PR, %M2/%M1): 0.012 +/− 0.002^†
[1]; Table 3 series (CD8 APC staining), CD3+, Be 100 μM, beryllium-exposed sensitized (n = 14)
  proliferative ratio (PR, %M2/%M1): 0.188 +/− 0.137‡
[1]; Table 3 series (CD8 APC staining), CD3+, Be 100 μM, normal controls (n = 6)
  proliferative ratio (PR, %M2/%M1): 0.013 +/− 0.002
[1]; Table 3 series, CD4+ (CD3+/CD4+), Be 10 μM, beryllium-exposed sensitized (n = 14)
  proliferative ratio (PR, %M2/%M1): 0.164 +/− 0.112‡
[1]; Table 3 series, CD4+ (CD3+/CD4+), Be 10 μM, normal controls (n = 6)
  proliferative ratio (PR, %M2/%M1): 0.015 +/− 0.003
[1]; Table 3 series, CD4+ (CD3+/CD4+), Be 100 μM, beryllium-exposed sensitized (n = 14)
  proliferative ratio (PR, %M2/%M1): 0.210 +/− 0.114‡
[1]; Table 3 series, CD4+ (CD3+/CD4+), Be 100 μM, normal controls (n = 6)
  proliferative ratio (PR, %M2/%M1): 0.015 +/− 0.002
[1]; Table 3 series, CD8+ (CD3+/CD8+), Be 10 μM, beryllium-exposed sensitized (n = 11)
  proliferative ratio (PR, %M2/%M1): 0.016 +/− 0.003
[1]; Table 3 series, CD8+ (CD3+/CD8+), Be 10 μM, normal controls (n = 4)
  proliferative ratio (PR, %M2/%M1): 0.013 +/− 0.003
[1]; Table 3 series, CD8+ (CD3+/CD8+), Be 100 μM, beryllium-exposed sensitized (n = 11)
  proliferative ratio (PR, %M2/%M1): 0.019 +/− 0.002
[1]; Table 3 series, CD8+ (CD3+/CD8+), Be 100 μM, normal controls (n = 4)
  proliferative ratio (PR, %M2/%M1): 0.011 +/− 0.004
[1]; beryllium-sensitive population, CD3+ population, 10 μM, p<0.05
  CFSE-determined response (in words): significant positive response
[1]; beryllium-sensitive population, CD3+/CD4+ population, 10 μM and 100 μM, p<0.05
  CFSE-determined response (in words): significant positive response
[2]; Day 5, Be 10 μM, beryllium-exposed sensitized (n = 24)
  stimulation index (SI): 12.1 ± 3.96
[2]; Day 5, Be 10 μM, normal controls (n = 9)
  stimulation index (SI): 0.72 ± 0.08
[2]; Day 5, Be 100 μM, beryllium-exposed sensitized (n = 24)
  stimulation index (SI): 12.8 ± 4.93
[2]; Day 5, Be 100 μM, normal controls (n = 9)
  stimulation index (SI): 0.74 ± 0.09
[2]; Day 7, Be 10 μM, beryllium-exposed sensitized (n = 24)
  stimulation index (SI): 12.5 ± 4.43
[2]; Day 7, Be 10 μM, normal controls (n = 9)
  stimulation index (SI): 0.44 ± 0.08
[2]; Day 7, Be 100 μM, beryllium-exposed sensitized (n = 24)
  stimulation index (SI): 11.5 ± 4.86
[2]; Day 7, Be 100 μM, normal controls (n = 9)
  stimulation index (SI): 0.52 ± 0.12
[2]; beryllium-sensitized population, p<0.05
  proliferative response by thymidine incorporation (in words): positive responses were noted
[2]; control group
  proliferative response by thymidine incorporation (in words): positive responses to beryllium were not noted

## phytohemagglutinin [PHA]
[1]; CD3+ and CD3+CD4+ cells from both the control and the beryllium-sensitive populations
  CFSE-determined response (in words): positive responses
[1]; CD3+, CD3+/CD4+ and CD3+/CD8+ T cells from controls (n=6) and beryllium-sensitized (n=14) populations
  CFSE-determined response (in words): responded
[1]; CD3+/CD4+, PHA, day 7, beryllium-exposed sensitized (n = 24)
  proliferative ratio (PR, %M2/%M1): 15.756 ± 5.094
[1]; CD3+/CD4+, PHA, day 7, normal controls (n = 9)
  proliferative ratio (PR, %M2/%M1): 10.064 ± 2.753
[1]; CD3+, PHA, day 7, beryllium-exposed sensitized (n = 24)
  proliferative ratio (PR, %M2/%M1): 10.358 ± 4.730
[1]; CD3+, PHA, day 7, normal controls (n = 9)
  proliferative ratio (PR, %M2/%M1): 9.853 ± 2.908
[2]; Day 3, PHA 500 μg/ml, beryllium-exposed sensitized (n = 24)
  stimulation index (SI): 178 ± 23.2
[2]; Day 3, PHA 500 μg/ml, normal controls (n = 9)
  stimulation index (SI): 137 ± 38.9
[2]; control and beryllium-sensitized populations, PHA on day 3, Candida on day 5 and on day 7
  proliferative response by thymidine incorporation (in words): Positive responses
